Measured values as given in patent US20230066156A1, “6-SUBSTITUTED, 22-CYANO HYODEOXYCHOLANIC ANALOGUES AND USES THEREOF” (PRECISION BIO-THERAPEUTICS S.R.L., priority 2019, published 2023).

Tested on: TNBS-induced colitis
Assay: TNBS-induced colitis in Gpbar1+/+ and Gpbar1-/- mice
Format: in vivo
Conditions: for development and severity of colitis assessed by body weight lost, CDAI and histological sections: 30 mg/kg daily by o.s., FIG. 2A-C
Procedure: Because macrophages are one of the most abundant leucocytes in the intestinal mucosa and are implicated in the pathogenesis of IBDs (Inflammatory bowel diseases), the effect of PBT110B was investigated in a TNBS-induced colitis (2,4,6-trinitrobenzene sulfonic acid-induced) in Gpbar1+/+ and Gpbar1-/- mice. Gpbar1+/+ and Gpbar1-/- mice were treated with TNBS alone or in combination PBT110B (30 mg/kg). […] In addition, the expression of pro- and anti-inflammatory cytokines in the colon of these animals (FIG. 3) was analyzed. Gpbar1^+/+ and Gpbar1^-/- mice were treated with TNBS alone or in combination PBT110B (30 mg/kg). Values are normalized relative to Gapdh mRNA and are expressed as mean±SEM (n=5); ^#p<0.05. GPBAR1 null mice on C57BL/6NCrl background, and C57BL/6NCrl congenic littermates were originally donated by Dr. […] (Schering-Plough Research Institute, Kenilworth). The colonies were maintained in the animal facility of University of Perugia. Mice were housed under controlled temperatures (22° C.) and photoperiods (12:12-hour light/dark cycle), allowed unrestricted access to standard mouse chow and tap water and allowed to acclimate to these conditions for at least 5 days before inclusion in an experiment. The study was conducted in agreement with the Italian law and the protocol was approved by ethical committee of University of Perugia and by a National Committee of Italian Ministry of Health permit n° 1126/2016-PR. The health and body conditions of the animals were monitored daily by the veterinarian in the animal facility. The study protocol caused minor suffering, however, animals that lost more than 25% of the initial body weight were euthanized. Colitis was induced in mice by TNBS. Mice were fasted for 12 h (day -1) and the day after (day 0) mice were anesthetized, and a 3.5 F catheter inserted into the colon such that the tip was 3 cm proximal to the anus. To induce colitis, 1 mg of 2,4,6-trinitrobenzenesulfonic acid TNBS (Sigma Chemical Co, St Louis, Mo.) in 50% ethanol was administered via catheter into the lumen using a 1 ml syringe (injection volume of 200 μL); control mice received 50% ethanol alone. Animals were monitored daily. At the end of the experiments, the surviving mice were sacrificed and the colon was excised, weighed, and evaluated for macroscopic damage. In some groups of mice, PBT110B dissolved in nitrocellulose 1% was administered daily also by o.s. at the concentration of 30 mg/kg of body weight The severity of colitis was measured each day for each mouse by assessing the body weight, the fecal blood and stool consistency. Each parameter was scored from 0 to 4 and the sum represents the Colitis Disease Activity Index (CDAI). The scoring system was as following: percent of body weight loss: none=0; 1-5%=1; 5-10%=2; 10-20%=3; >20%=4. Stool consistency: normal=0; soft but still formed=1; very soft=2; diarrhea=3; liquid stools that stick to the anus or anal occlusion=4. Fecal blood: none=0; visible in the stool=2; severe bleeding with fresh blood around the anus and very present in the stool=4. Samples of distal colon (2-3 cm from the anus) were fixed in buffered formalin, cut into 5-μm-thick sections (150 μm between each section, four to eight per fragment per colon), and stained with H&E. Colon samples were immediately frozen in liquid nitrogen and stored at -80° C. until used, mechanically homogenated with the aid of a pestle, and the obtained materials re-suspended in 1 ml of Trizol (Thermo ScientificTM). […]

[1] = wild-type mice, 30 mg/kg, Real-Time PCR, FIG. 3

## CC[C@]1(O)C[C@H]2[C@@H]3CC[C@H]([C@H](C)CC#N)[C@@]3(C)CC[C@@H]2[C@@]2(C)CC[C@@H](O)C[C@@H]12 [PBT110B, 3α,6α-dihydroxy-6β-ethyl-24-nor-5β-cholan-23-nitrile]
Gpbar1+/+ mice
  development and severity of colitis assessed by body weight lost, CDAI and histological sections: attenuated
Gpbar1-/- mice
  development and severity of colitis assessed by body weight lost, CDAI and histological sections: failed to do the same
Mice lacking the receptor (Gpbar1-/-), 30 mg/kg, FIG. 3
  beneficial effects on colon cytokine expression (pro-inflammatory cytokines, IL-10): lost
[1]
  expression of pro-inflammatory cytokines (Il-6, Il-1β, TNF-α) in the colon: reducing
  expression of the anti-inflammatory cytokine IL-10 in the colon: increasing
